The values that follow come from US10758545B2, “Methods to treat neurological diseases” (UNIVERSITY OF SOUTHERN CALIFORNIA, priority 2015, dated 2020).

This assay relates to C9ORF72 patient iMNs. As to the kind of experiment: induced motor neuron (iMN) survival assay, glutamate treatment. Type of assay: cell-based, human. The conditions noted are these: excess glutamate (10 μM, 12 hrs); longitudinal tracking, log-rank. As to the method:
For the glutamate treatment conditions, 10 μM glutamate was added to the culture medium on day 17 and removed after 12 hrs. Cells were then maintained in N3 medium with neurotrophic factors without RepSox. For the glutamate treatment conditions with glutamate receptor antagonists, cultures were co-treated with 10 μM MK801 and CNQX, and 2 μM Nimodipine during the 12 hr glutamate treatment. The antagonists were maintained for the remainder of the experiment. For the neurotrophic factor withdrawal condition, BDNF, GDNF, and CNTF were removed from the culture medium starting at day 17. Longitudinal tracking was performed by imaging neuronal cultures in a Nikon Biostation CT or Molecular Devices ImageExpress once every 24 hrs starting at day 17. Tracking of neuronal survival was performed using SVcell 2.0 (DRVision Technologies).

For `Cc1cccc(/C=N/Nc2cc(N3CCOCC3)nc(OCCc3ccccn3)n2)c1` [apilimod], the “survival of C9ORF72 patient iMNs” value is recorded as “increased the survival”.
